Experimental findings from US8592594B2, “Tetrahydro-quinoline derivatives” (Hoffmann-La Roche Inc., priority 2010, dated 2013) are described below.

pEC50: −log10 of the molar value.

The test relates to recombinant AMPK proteins (α1β1γ1, α2β1γ1, α1(1-335), α1(1-394) or α2(1-394)). The test is described as follows: Scintillation Proximity Assay (SPA), AMPK activation. It is filed as biochemical, human. The conditions noted are these: effective concentration of activator for 50% of maximal enzyme activity; 50 nM AMPK, 2 μM ATP, 2 μM biotin-SAMS, 30° C., 2 hours. Here is the method:
Recombinant human AMPK α1β1γ1, α2β1γ1 or AMPK α subunit truncations α1(1-335), α1(1-394) and α2(1-394) were constructed, expressed and purified as described previously (Pang, T., Zhang, Z. S., Gu, M., Qiu, B. Y., Yu, L. F., Cao, P. R., Shao, W., Su, M. B., Li, J. Y., Nan, F. J., and Li, J. (2008). Rat liver AMPK heterotrimer enzyme was obtained from Upstate (Billerica, Mass., U.S.A.).
Scintillation Proximity Assay
Before the Scintillation Proximity Assay (SPA) assay, 200 nM recombinant AMPK proteins (α1β1γ1, α2β1γ1, α1(1-335), α1(1-394) or α2(1-394)) were fully phosphorylated as described previously (Pang et al., 2008). SPA reactions were performed in 96-well plates at a final volume of 50 μL containing 20 mM Tris-HCl pH 7.5, 5 mM MgCl2, 1 mM DTT, 2 μM biotin-SAMS, 2 μM ATP, 0.2 μCi/well [γ-^33P]ATP, and various amount of activator. Reactions were initiated by the addition of 50 nM recombinant AMPK proteins to the reaction solutions and incubated at 30° C. for 2 hours. After that, reactions were terminated by the addition of 40 μL stop solution containing 80 μg streptavidin-coated SPA beads per well, 50 mM ED TA, 0.1% Triton X-100 in PBS, pH 7.5 and incubated for 1 hour. Finally, a 160 μL suspension solution containing 2.4 M CsCl, 50 mM EDTA, and 0.1% Triton X-100 in PBS (pH 7.5) was added to the reaction solution to suspend SPA beads completely. SPA signals were determined with a Wallac MicroBeta plate counter (PerkinElmer) 30 min later for calculation of the amount of product formed. The amount of products formed in 2 hour was plotted against activator concentrations to determine the effective concentration of the activator (EC50) required for 50% of maximal enzyme activity.
As for `Cc1ccc(F)cc1C1CC2(CC2)c2cc(C(=O)O)ccc2N1` (stereo not drawn) [Example 1, 2-(5-Fluoro-2-methyl-phenyl)-spiro(cyclopropane-1,4′-1′,2′,3′,4′-tetrahydroquinoline)-6-carboxylic acid], the pEC50 was 5.68.

Take `O=C(O)c1ccc2c(c1)C1(CC1)CC(c1cc(Br)ccc1F)N2` (stereo not drawn) [Example 2, 2-(5-Bromo-2-fluoro-phenyl)-spiro(cyclopropane-1,4′-1′,2′,3′,4′-tetrahydroquinoline)-6-carboxylic acid]: the pEC50 was 5.49.

As for `O=C(O)c1ccc2c(c1)C1(CC1)CC(c1cc(Cl)ccc1Cl)N2` (stereo not drawn) [Example 3, 2-(2,5-Dichloro-phenyl)-spiro(cyclopropane-1,4′-1′,2′,3′,4′-tetrahydroquinoline)-6-carboxylic acid], the negative-log EC50 (pEC50) was 5.21.

Turning to `O=C(O)c1ccc2c(c1)C1(CC1)CC(c1cc(Cl)cc(Cl)c1)N2` (stereo not drawn) [Example 4, 2-(3,5-Dichloro-phenyl)-spiro(cyclopropane-1,4′-1′,2′,3′,4′-tetrahydroquinoline)-6-carboxylic acid], the pEC50 is 4.88.

Consider `O=C(O)c1ccc2c(c1)C1(CC1)CC(c1cc(Cl)ccc1F)N2` (stereo not drawn) [Example 5, 2-(5-Chloro-2-fluoro-phenyl)-spiro(cyclopropane-1,4′-1′,2′,3′,4′-tetrahydroquinoline)-6-carboxylic acid], for which the negative-log EC50 (pEC50) is 5.91.

For `CS(=O)(=O)c1cccc(C2CC3(CC3)c3cc(C(=O)O)ccc3N2)c1` (stereo not drawn) [Example 6, 2-(3-Methanesulfonyl-phenyl)-spiro(cyclopropane-1,4′-1′,2′,3′,4′-tetrahydroquinoline)-6-carboxylic acid], the negative logarithm of the EC50 (pEC50) was 5.13.

As for `O=C(O)c1ccc2c(c1)C1(CC1)CC(c1cc(F)ccc1Br)N2` (stereo not drawn) [Example 7, 2-(2-Bromo-5-fluoro-phenyl)-spiro(cyclopropane-1,4′-1′,2′,3′,4′-tetrahydroquinoline)-6-carboxylic acid], the pEC50 is 5.64.

For the molecule `O=C(O)c1ccc2c(c1)C1(CC1)CC(c1cccc(F)c1)N2` (stereo not drawn) [Example 8, 2-(3-Fluoro-phenyl)-spiro(cyclopropane-1,4′-1′,2′,3′,4′-tetrahydroquinoline)-6-carboxylic acid], the pEC50 was 5.35.

For `O=C(O)c1ccc2c(c1)C1(CCCCC1)CC(c1cc(F)ccc1Br)N2` (stereo not drawn) [Example 9, 2-(2-Bromo-5-fluoro-phenyl)-spiro(cyclohexane-1,4′-1′,2′,3′,4′-tetrahydroquinoline)-6-carboxylic acid], the pEC50 is 5.77.

For the molecule `O=C(O)c1ccc2c(c1)C1(CCCC1)CC(c1cc(F)ccc1Br)N2` (stereo not drawn) [Example 10, 2-(2-Bromo-5-fluoro-phenyl)-spiro(cyclopentane-1,4′-1′,2′,3′,4′-tetrahydroquinoline)-6-carboxylic acid], the negative-log EC50 (pEC50) is 5.46.

For the molecule `CS(=O)(=O)c1ccc(F)cc1C1CC2(CC2)c2cc(C(=O)O)ccc2N1` (stereo not drawn) [Example 11, 2-(5-Fluoro-2-methanesulfonyl-phenyl)-spiro(cyclopropane-1,4′-1′,2′,3′,4′-tetrahydroquinoline)-6-carboxylic acid], the pEC50 was 5.30.

As for `CS(=O)(=O)c1ccc(S(C)(=O)=O)c(C2CC3(CC3)c3cc(C(=O)O)ccc3N2)c1` (stereo not drawn) [Example 12, 2-(2,5-Dimethanesulfonyl-phenyl)-spiro(cyclopropane-1,4′-1′,2′,3′,4′-tetrahydroquinoline)-6-carboxylic acid], the negative logarithm of the EC50 (pEC50) was 5.23.

With `CN(C)C(=O)N1c2ccc(C(=O)O)cc2C2(CC2)CC1c1cc(Cl)ccc1Cl` (stereo not drawn) [Example 13, 2-(2,5-Dichloro-phenyl)-1-dimethylcarbamoyl-spiro(cyclopropane-1,4′-1′,2′,3′,4′-tetrahydroquinoline)-6-carboxylic acid], the negative-log EC50 (pEC50) was 5.58.

Regarding `O=C(O)c1ccc2c(c1)C1(CC1)CC(c1cc(Cl)ccc1Cl)N2Cc1ccccc1` (stereo not drawn) [Example 14, 1-Benzyl-2-(2,5-dichloro-phenyl)-spiro(cyclopropane-1,4′-1′,2′,3′,4′-tetrahydroquinoline)-6-carboxylic acid], the negative-log EC50 (pEC50) was 5.42.

Turning to `CC1(C)CC(c2cc(Cl)ccc2Cl)Nc2ccc(C(=O)O)cc21` (stereo not drawn) [Example 15, 2-(2,5-Dichloro-phenyl)-4,4-dimethyl-1,2,3,4-tetrahydro-quinoline-6-carboxylic acid], the pEC50 was 5.12.

Regarding `CC1(C)CC(C(C)(C)c2ccccc2)Nc2ccc(C(=O)O)cc21` (stereo not drawn) [Example 16, 4,4-Dimethyl-2-(1-methyl-1-phenyl-ethyl)-1,2,3,4-tetrahydro-quinoline-6-carboxylic acid], the pEC50 was 5.06.

For the molecule `CC1(C)CC(c2cc(Cl)ccc2F)Nc2cc(Cl)c(C(=O)O)cc21` (stereo not drawn) [Example 17, 7-Chloro-2-(5-chloro-2-fluoro-phenyl)-4,4-dimethyl-1,2,3,4-tetrahydro-quinoline-6-carboxylic acid], the pEC50 was 5.34.

On to `CC1(C)CC(c2cc(Cl)ccc2F)Nc2ccc(CC(=O)O)cc21` (stereo not drawn) [Example 18, [2-(5-Chloro-2-fluoro-phenyl)-4,4-dimethyl-1,2,3,4-tetrahydro-quinolin-6-yl]-acetic acid], for which the negative-log EC50 (pEC50) was 5.34.

As for `C=CC1(C)CC(c2ccc(F)c(Cl)c2)Nc2ccc(C(=O)O)cc21` (stereo not drawn) [Example 19, 2-(3-Chloro-4-fluoro-phenyl)-4-methyl-4-vinyl-1,2,3,4-tetrahydro-quinoline-6-carboxylic acid], the negative-log EC50 (pEC50) was 5.67.

Turning to `CC1(c2ccccc2)CC(c2ccc(F)c(Cl)c2)Nc2ccc(C(=O)O)cc21` (stereo not drawn) [Example 20, 2-(3-Chloro-4-fluoro-phenyl)-4-methyl-4-phenyl-1,2,3,4-tetrahydro-quinoline-6-carboxylic acid], the pEC50 is 5.48.

As for `CC1(C)CC(c2cccc(N3CCOCC3)c2)Nc2ccc(C(=O)O)cc21` (stereo not drawn) [Example 22, 4,4-Dimethyl-2-(3-morpholin-4-yl-phenyl)-1,2,3,4-tetrahydro-quinoline-6-carboxylic acid], the negative-log EC50 (pEC50) was 5.27.

On to `CC(C)N1CCN(c2cccc(C3CC(C)(C)c4cc(C(=O)O)ccc4N3)c2)CC1` (stereo not drawn) [Example 23, 2-[3-(4-Isopropyl-piperazin-1-yl)-phenyl]-4,4-dimethyl-1,2,3,4-tetrahydro-quinoline-6-carboxylic acid], for which the pEC50 was 5.15.

`C=CC1(C)CC(c2ccc(F)c(Cl)c2)Nc2ccc(C(=O)O)nc21` (stereo not drawn) [Example 25, 6-(3-Chloro-4-fluoro-phenyl)-8-methyl-8-vinyl-5,6,7,8-tetrahydro-[1,5]naphthyridine-2-carboxylic acid]: the negative-log EC50 (pEC50) is 5.32.

As for `CCC1(C)CC(c2ccc(F)c(Cl)c2)Nc2ccc(C(=O)O)nc21` (stereo not drawn) [Example 26, 6-(3-Chloro-4-fluoro-phenyl)-8-ethyl-8-methyl-5,6,7,8-tetrahydro-[1,5]naphthyridine-2-carboxylic acid], the negative logarithm of the EC50 (pEC50) was 5.68.

Regarding `CCC1(C)CC(c2ccc(F)c(Cl)c2)N(CCC(C)C)c2ccc(C(=O)O)nc21` (stereo not drawn) [Example 27, 6-(3-Chloro-4-fluoro-phenyl)-8-ethyl-8-methyl-5-(3-methyl-butyl)-5,6,7,8-tetrahydro-[1,5]naphthyridine-2-carboxylic acid], the negative-log EC50 (pEC50) was 5.83.

With `Cc1ccc(F)cc1C1CC2(CC2)c2cc(C(=O)NC3CCC3)ccc2N1` (stereo not drawn) [Example 28, 2-(5-Fluoro-2-methyl-phenyl)-spiro(cyclopropane-1,4′-1′,2′,3′,4′-tetrahydroquinoline)-6-carboxylic acid cyclobutylamide], the pEC50 is 4.94.

`Cc1ccc(F)cc1C1CC2(CC2)c2cc(C(=O)N3CCOCC3)ccc2N1` (stereo not drawn) [Example 30, [2-(5-Fluoro-2-methyl-phenyl)-spiro(cyclopropane-1,4′-1′,2′,3′,4′-tetrahydroquinolin)-6-yl]-morpholin-4-yl-methanone]: the pEC50 was 5.61.

For `Cc1ccc(F)cc1C1CC2(CC2)c2cc(C(=O)N3CCN(C)CC3)ccc2N1` (stereo not drawn) [Example 31, [2-(5-Fluoro-2-methyl-phenyl)-spiro(cyclopropane-1,4′-1′,2′,3′,4′-tetrahydroquinolin)-6-yl]-(4-methyl-piperazin-1-yl)-methanone], the negative logarithm of the EC50 (pEC50) is 5.59.

For the molecule `O=C(c1ccc2c(c1)C1(CC1)CC(c1cc(F)ccc1Br)N2)N1CCOCC1` (stereo not drawn) [Example 32, [2-(2-Bromo-5-fluoro-phenyl)-spiro(cyclopropane-1,4′-1′,2′,3′,4′-tetrahydroquinolin)-6-yl]-morpholin-4-yl-methanone], the negative-log EC50 (pEC50) was 5.91.

Take `CC(C)NC(=O)c1ccc2c(c1)C1(CC1)CC(c1cc(F)ccc1Br)N2` (stereo not drawn) [Example 33, 2-(2-Bromo-5-fluoro-phenyl)-spiro(cyclopropane-1,4′-1′,2′,3′,4′-tetrahydroquinoline)-6-carboxylic acid isopropylamide]: the pEC50 is 4.87.
